Measurements published in patent publication US5081253A, “Imidazo(4,5-C)pyridines as antiosteoporotic agents” (American Home Products Corporation, priority 1990, dated 1992).

How the values were obtained:
[1] = test system: osteopenia induced by denervation of the sciatic nerve in rats; assay: Denervation Induced Osteopenia in Rats; assay type: in vivo, rat (female Sprague Dawley CD)
Source text: The purpose of this assay is to evaluate the effect, in rats, of agents on the reduction in bone mass (osteopenia) induced by immobilization resulting from surgical severance (denervation) of the sciatic nerve.
The animals are housed in plastic cages (4 or 5 rats/cage) with food (rat purina 500 chow) and water ad libitum; 14/10 day/night cycle.
After one week of in-house acclimatization, the animals are randomly divided into groups of 6 to 10 rats/group. Each rat is weighed, anesthetized with an intraperitoneal administration of 100 mg/kg ketamine (Bristol Laboratories, Syracuse, N.Y.) and 0.75 mg/kg Acepromazine (Aveco, Ft. Dodge, Iowa). The left hind limb is shaved and denervated by making a lateral incision parallel to the femur and by surgically removing half of a centimeter of the sciatic nerve adjacent to caudofemoralis and adductor brevis muscles. The incision is closed with wound clips. After surgery, the rats are housed in cages with absorbent bedding to minimize additional trauma to the immobilized limb. A 24 hour post-surgery recovery period is allowed before the initiation of the drug treatment.
The concentration of the drug stock is calculated to be delivered in a volume of 0.1 mL/100 gram body weight. The drug solution or a uniform suspension is prepared in 1% Tween 80 in normal saline. The drugs are administered via oral or parenteral routes daily (five times a week) for four weeks.
A sequential triple labeling of mineralized tissue is employed to determine the osseous changes (especially the bone formation) and the mineralization rates. Each animal is administered 90 mg/kg Xylenol orange (Fisher Scientific Company), S.C., 15 mg/kg Calcein (Sigma Chemical Company), S.C. and 15 mg/kg Demeclocycline (Sigma Chemical Company), i.p., approximately 21 days, 10 days and 2 days prior to the termination of the study, respectively.
At the end of the fourth week, each rat is weighed, anesthetized with an intraperitoneal administration of 100 mg/kg ketamine with 0.75 mg/kg Acepromazine and approximately 4 mL of blood collected via cardiac puncture. The anesthetized rats are euthanized by exposure to carbon dioxide. The femora and tibiae from both limbs are dissected free of soft tissue. (i) Femora are ashed at ~1100° C. for 16 hours using a muffle furnace. --(ii) Proximal tibia are fixed, dehydrated and embedded undecalcified in a methyl methacrylate-glycol methacrylate mixture. Longitudinal tissue sections (10 microns) are prepared on a Polycut S microtome (Reichert). Staining is performed on free-floating sections using a modified Goldner's stain, which are then mounted and coverslipped.
Cancellous bone content in the proximal tibia is quantified (as two dimensional bone mineral area [B.Ar]) with an image analysis processing device (software developed by Drexel University).
The areas of the tibia selected for cancellous bone content evaluation are the primary and secondary spongiosa. To select and standardize this area for evaluation, the epiphyseal growth plate-metaphyseal junction is oriented parallel to the abscissa of the digitizing screen. Bone elements 1.7 mm (secondary spongiosa) and 0.2 mm (primary spongiosa) from the growth plate and equidistant from the flanking cortical elements are then quantified as described above. The total area evaluated is 2.30 mm wide and 1.45 mm deep, constituting a 3.34 mm^2 area.
Body weight, femur mass (dried or ashed) and trabecular (cancellous) bone mineral area (B.Ar) are determined.
The difference (both absolute and percent change) in femur mass and bone mineral area between intact (control) and denervated limbs of a treatment group are compared with that for the vehicle group using a one-way analysis of variance with Dunnett's test, or other multiple comparison methods.
The results are reported in Table I and II under the heading In Vivo.

[2] = test system: Rat Limb Bones (PTH induced bone resorption); assay: Bone Resorption Assay: 45Ca Release from Rat Limb Bones (PTH Induced); assay type: cell-based, rat (Sprague-Dawley CD)
Procedure: The purpose of this assay is to identify compounds that inhibit basal or stimulated bone resorption in culture.
The ability of 2-substituted-imidazo[4,5-c]pyridines to modify the process of bone resorption was evaluated essentially as described by L.G. Raisz, Bone resorption in tissue culture. Factors influencing the response to parathyroid hormone.
Timed pregnant Sprague-Dawley CD® rats (Charles River) are administered 100 μCi ^45 CaCl2 (NEN calcium -45 NEZ-013) in 100 μL of 0.9% saline, subcutaneously, on day 18 of gestation. The rats are sacrificed the following day by CO2 asphyxiation. The fetuses are removed and the right forelimbs excised and placed in a Petri dish containing ice cold explant medium consisting of modified BGJb -Fitton Jackson media (custom formulation, Gibco No. 78-0088) adjusted to pH 7.3 to which 10 mM TES is added. […] Under a dissecting microscope, the bones are gently cleaned of adherent tissue and the cartilaginous ends removed. Incubation and drug treatment. […] The preincubation medium is brought to 37° C. prior to transfer of bones. The preincubation medium consists of the modified BGJb medium (with salts and glucose as above), pH 7.3, containing 29 mM NaHCO3. […] For compounds that require nonaqueous solvents, dilutions are made from the appropriate stock solution with medium. In these instances, basal and bone resorption stimulated controls exposed to an equivalent concentration of the vehicle are included. […] The right ulna and radius from each fetus are used. Both bones are subjected to the same treatment and each treatment group consists of bones from 4 or more fetuses. Treatments are randomly assigned using a preclinical statistics program (PS-ALLOC). After a 48 hour incubation at 37° C. in 5% CO2, the bones are removed from the medium and extracted in 0.5 mL of 0.1N HCl for 1 or more days. Duplicate 150 μL aliquots of the incubation medium and the bone extract are analyzed for ^45 Ca radioactivity in 5 mL of liquid scintillation cocktail.
The percentage of bone ^45 Ca released into the medium is determined as follows: [formula] […]

[3] = test system: Rat Limb Bones (basal bone resorption); assay: Basal Bone Resorption Assay: 45Ca Release from Rat Limb Bones; assay type: cell-based
Source text: The purpose of this assay is to test stimulators and inhibitors of bone resorption in vitro. The release of ^45 Ca from in vitro labeled murine bone explants into the culture media is taken as an index of bone resorption.
Rat pups are labelled […] by injecting pregnant dams (18 days) with 100 μCi of ^45 Ca.
Two days after the initiation of labelling, the dam is anesthetized with halothane and killed by cervical dislocation. The pups are ablated and quickly decapitated. The calvaria (frontal and parietal bones), forelimbs (containing radii and ulnae), and hind limbs (tibiae) are removed and placed in control media in a petri dish. Bones are debrided of soft tissue by a combination of blunt dissection, and gentle rolling on bibulous paper, taking care not to disturb the periosteum. Cartilaginous ends are cut off long bones. Calvaria are cut in half along midline suture. Bones are separated into 3 categories: calvaria halves, Tibiae and ulnae/radii. Groups of eight (per bone group) are randomly placed in 24-well culture plates containing 0.5 mL of control media. Cultures are maintained at 37° C. in a humidified incubator of 95% air: 5% CO2.
These bones are incubated for 24 hours, media is aspirated from the bones and replaced with fresh media containing test substances. Each bone group has a control group of 8 and a dead bone group of 8. The devitalized cultures are obtained by heating the bones in medium at 55° C. for 60 minutes. The bones are incubated at 37° C. for an additional 72 hours. At the end of this period a 100 microliter aliquot of media is removed and placed in a scintillation vial. Ten mL of Aquasol is added, the ^45 Ca is quantified in a scintillation spectrometer. Bones are rinsed in saline, placed in a scintillation vial, hydrolyzed overnight in 0.75 mL 6N HCl at room temperature. The hydrolyzed bone solution is neutralized by the addition of 2.25 mL of 2N NaOH, followed by 10 mL of Aquasol, the ^45 Ca content is determined by scintillation spectrometry.
Analysis: ^45 Ca release into culture medium from the 24-96 hour period is individually compared to ^45 Ca release in control cultures and to devitalized bone via Dunnett's test. […]

[4] = Table I, concentration not given

SMILES | Inhibition of Bone Resorption, PTH Induced ([2]; Table II, 10 μg/mL) | Inhibition of Bone Resorption, Basal ([3]; Table II, 10 μg/mL) | Inhibition of Bone Resorption, Basal ([3]; Table I, 10 μg/mL) | Inhibition of Bone Resorption, PTH Induced ([2]; Table I, 10 μg/mL) | other results
COc1cccc(CSc2nc3cnccc3[nH]2)c1 [Example 2, 2-[[(3-Methoxyphenyl)methyl]thio]-1H-imidazo[4,5-c]pyridine] | Inactive | Inactive | – | – | Inhibition of Bone Resorption, In Vivo ([1]; Table II, 25 mg/kg, i.p.): Active
COc1cccc(C[S+]([O-])c2nc3cnccc3[nH]2)c1 (stereo not drawn) [Example 3, 2-[[(3-Methoxyphenyl)methyl]sulfinyl]-1H-imidazo[4,5-c]pyridine] | – | – | Active | – | Inhibition of Bone Resorption, In Vivo ([1]; po, 672 h): Active; IC50 ([2]; Rattus norvegicus, Table I, read-out: Inhibition of Bone Resorption, PTH Induced IC50): 49 µM; Inhibition of Bone Resorption, PTH Induced [2, 4]: Active
COc1cccc(CS(=O)(=O)c2nc3cnccc3[nH]2)c1 [Example 4] | – | – | Marginal | Active | Inhibition of Bone Resorption, In Vivo ([1]; po, 672 h): Inactive
Clc1ccc(CSc2nc3cnccc3[nH]2)cc1Cl [Example 5, 2-[[(3,4-Dichlorophenyl)methyl]thio]-1H-imidazo[4,5-c]pyridine] | – | Inactive | – | – | –
[O-][S+](Cc1ccc(Cl)c(Cl)c1)c1nc2cnccc2[nH]1 (stereo not drawn) [Example 6, 2-[[(3,4-Dichlorophenyl)methyl]sulfinyl]-1H-imidazo[4,5-c]pyridine] | – | – | Active | Active | –
FC(F)(F)c1cccc(CSc2nc3cnccc3[nH]2)c1 [Example 7, 2-[[[3-(Trifluoromethyl)phenyl]methyl]thio]-1H-imidazo[4,5-c]pyridine] | – | Active | – | – | –
[O-][S+](Cc1cccc(C(F)(F)F)c1)c1nc2cnccc2[nH]1 (stereo not drawn) [Example 8, 2-[[[3-(Trifluoromethyl)phenyl]methyl]-sulfinyl]-1H-imidazo[4,5-c]pyridine] | – | – | – | Active | Inhibition of Bone Resorption, Basal [3, 4]: Inactive
Fc1cccc(Cl)c1CSc1nc2cnccc2[nH]1 [Example 9, 2-[[(2-Chloro-6-fluorophenyl)methyl]thio]-1H-imidazo[4,5-c]pyridine] | Inactive | Inactive | – | – | –
[O-][S+](Cc1c(F)cccc1Cl)c1nc2cnccc2[nH]1 (stereo not drawn) [Example 10, 2-[[(2-Chloro-6-fluorophenyl)methyl]-sulfinyl]-1H-imidazo[4,5-c]pyridine] | – | – | Active | Active | Inhibition of Bone Resorption, In Vivo ([1]; po, 672 h): Inactive
c1ccc(CSc2nc3cnccc3[nH]2)cc1 [Example 11, 2-[[(Phenyl)methyl]thio]-1H-imidazo[4,5-c]pyridine] | – | Inactive | – | – | –
[O-][S+](Cc1ccccc1)c1nc2cnccc2[nH]1 (stereo not drawn) [Example 12, 2-[[(Phenyl)methyl]sulfinyl]-1H-imidazo-[4,5-c]pyridine] | – | – | Active | Active | Inhibition of Bone Resorption, In Vivo ([1]; po, 672 h): Inactive
c1ccc(CCSc2nc3cnccc3[nH]2)cc1 [Example 13, 2-[(2-Phenylethyl)thio]-1H-imidazo[4,5-c]pyridine] | Inactive | Inactive | – | – | –
[O-][S+](CCc1ccccc1)c1nc2cnccc2[nH]1 (stereo not drawn) [Example 14, 2-[(2-Phenylethyl)sulfinyl]-1H-imidazo[4,5-c]pyridine] | – | – | Active | Active | –
COc1cccc(CC[S+]([O-])c2nc3cnccc3[nH]2)c1 (stereo not drawn) [Example 17, 2-[[(3 -Methoxyphenyl)ethyl]sulfinyl]-1H-imidazo[4,5-c]pyridine] | – | – | Inactive | Active | Inhibition of Bone Resorption, In Vivo ([1]; Table I, no dose given, oral or parenteral daily (five times a week) for four weeks): Borderline
Fc1cc(Br)ccc1CSc1nc2cnccc2[nH]1 [Example 20, 2-[[(4-Bromo-2-fluorophenyl)methyl]thio]-1H-imidazo[4,5-c]pyridine] | Active | Inactive | – | – | –
c1ccc(COc2cccc(CSc3nc4cnccc4[nH]3)c2)cc1 [Example 22, 2-[[[3-(Phenylmethoxy)phenyl]methyl]thio]-1H-imidazo[4,5-c]pyridine] | Active | Inactive | – | – | –
